Experimental data as given in PMC5218480 (PLoS ONE, 2017).

Test system: MV-4-11 cells
Assay: Gene expression microarray analysis (Affymetrix PrimeView) and GSEA
Type: cell-based, human
Design: RFU PODN (11730768_x_at) / Fold change /veh PODN (11730768_x_at) / RFU LINC00158 (11744669_a_at) / Fold change /veh LINC00158 (11744669_a_at) / RFU DUSP10 (11751237_a_at) / Fold change /veh DUSP10 (11751237_a_at) / RFU ID3 (11757404_x_at) / Fold change /veh ID3 (11757404_x_at) / RFU PLEKHG5 (11737974_s_at) / Fold change /veh PLEKHG5 (11737974_s_at) / RFU LRRC4B (11730491_at) / Fold change /veh LRRC4B (11730491_at) / RFU GIMAP4 (11747438_a_at) / Fold change /veh GIMAP4 (11747438_a_at) / RFU KRT8 (11758183_x_at) / Fold change /veh KRT8 (11758183_x_at) / RFU CNN1 (11734310_a_at) / Fold change /veh CNN1 (11734310_a_at) / RFU VPS37D (11726825_at) / Fold change /veh VPS37D (11726825_at) / RFU C10orf10 (11716522_x_at) / Fold change /veh C10orf10 (11716522_x_at) / RFU KIR2DL2 /// KIR2DL4 /// KIR2DL5A /// KIR2DL5B /// KIR2DS1 /// KIR2DS2 /// KIR2DS3 /// KIR2DS4 /// KIR3DL3 /// KIR3DL3 /// KIR3DS1 (11738374_at) / Fold change /veh KIR2DL2 /// KIR2DL4 /// KIR2DL5A /// KIR2DL5B /// KIR2DS1 /// KIR2DS2 /// KIR2DS3 /// KIR2DS4 /// KIR3DL3 /// KIR3DL3 /// KIR3DS1 (11738374_at) / RFU C1QL1 (11718748_at) / Fold change /veh C1QL1 (11718748_at) / RFU TMPRSS4 (11747572_a_at) / Fold change /veh TMPRSS4 (11747572_a_at) / RFU HAMP (11756126_x_at) / Fold change /veh HAMP (11756126_x_at) / RFU RNFT2 (11725882_a_at) / Fold change /veh RNFT2 (11725882_a_at) / RFU NR4A2 (11747474_a_at) / Fold change /veh NR4A2 (11747474_a_at) / RFU ABCC12 (11746883_a_at) / Fold change /veh ABCC12 (11746883_a_at) / RFU TMEM136 (11760407_x_at) / Fold change /veh TMEM136 (11760407_x_at) / RFU CLDN22 /// WWC2 (11732394_at) / Fold change /veh CLDN22 /// WWC2 (11732394_at) / RFU HLA-DPB1 (11760878_x_at) / Fold change /veh HLA-DPB1 (11760878_x_at) / RFU SPINT1 (11716480_a_at) / Fold change /veh SPINT1 (11716480_a_at) / RFU GAP43 (11754022_s_at) / Fold change /veh GAP43 (11754022_s_at) / RFU A4GNT (11735810_at) / Fold change /veh A4GNT (11735810_at) / RFU PRB3 (11715151_x_at) / Fold change /veh PRB3 (11715151_x_at) / RFU TUBB4B (11761932_at) / Fold change /veh TUBB4B (11761932_at) / RFU CAPN14 (11732068_a_at) / Fold change /veh CAPN14 (11732068_a_at) / RFU TMCC2 (11721928_a_at) / Fold change /veh TMCC2 (11721928_a_at) / RFU IRGQ (11745062_a_at) / Fold change /veh IRGQ (11745062_a_at) / RFU FAM174B (11720279_a_at) / Fold change /veh FAM174B (11720279_a_at) / RFU TMPRSS4 (11748680_a_at) / Fold change /veh TMPRSS4 (11748680_a_at) / RFU FAM212B (11763350_a_at) / Fold change /veh FAM212B (11763350_a_at) / RFU PLEKHG5 (11743358_a_at) / Fold change /veh PLEKHG5 (11743358_a_at) / RFU ZSCAN30 (11745921_a_at) / Fold change /veh ZSCAN30 (11745921_a_at) / RFU CMKLR1 (11741424_a_at) / Fold change /veh CMKLR1 (11741424_a_at) / RFU LOC101060620 /// MAPK8IP1 (11723275_at) / Fold change /veh LOC101060620 /// MAPK8IP1 (11723275_at) / RFU SPTSSB (11747773_x_at) / Fold change /veh SPTSSB (11747773_x_at) / RFU PRSS12 (11739890_at) / Fold change /veh PRSS12 (11739890_at) / RFU BIN1 (11741810_x_at) / Fold change /veh BIN1 (11741810_x_at) / RFU WNT11 (11732464_a_at) / Fold change /veh WNT11 (11732464_a_at) / RFU C10orf10 (11716521_a_at) / Fold change /veh C10orf10 (11716521_a_at) / RFU C5orf56 (11738089_at) / Fold change /veh C5orf56 (11738089_at) / RFU CYB561 (11721691_x_at) / Fold change /veh CYB561 (11721691_x_at) / RFU ANKRD19P (11752326_a_at) / Fold change /veh ANKRD19P (11752326_a_at) / RFU OR2T12 /// OR2T33 /// OR2T8 (11738714_s_at) / Fold change /veh OR2T12 /// OR2T33 /// OR2T8 (11738714_s_at) / RFU VCAN (11748164_a_at) / Fold change /veh VCAN (11748164_a_at) / RFU JSRP1 (11732532_at) / Fold change /veh JSRP1 (11732532_at) / RFU KRTAP10-11 (11738290_x_at) / Fold change /veh KRTAP10-11 (11738290_x_at) / RFU MYO3A (11730013_a_at) / Fold change /veh MYO3A (11730013_a_at) / RFU EBF3 (11725865_a_at) / Fold change /veh EBF3 (11725865_a_at) / RFU CAMK2N1 (11719241_x_at) / Fold change /veh CAMK2N1 (11719241_x_at) / RFU C5orf56 (11738088_a_at) / Fold change /veh C5orf56 (11738088_a_at) / RFU OLFML3 (11715873_a_at) / Fold change /veh OLFML3 (11715873_a_at) / RFU LOC100653217 /// NTM (11731650_a_at) / Fold change /veh LOC100653217 /// NTM (11731650_a_at) / RFU MAPK11 (11762145_a_at) / Fold change /veh MAPK11 (11762145_a_at) / RFU FIZ1 (11724087_x_at) / Fold change /veh FIZ1 (11724087_x_at) / RFU OASL (11726364_x_at) / Fold change /veh OASL (11726364_x_at) / RFU SOX15 (11748057_x_at) / Fold change /veh SOX15 (11748057_x_at) / RFU CD79A (11719716_a_at) / Fold change /veh CD79A (11719716_a_at) / RFU HIST1H1D (11736915_at) / Fold change /veh HIST1H1D (11736915_at) / RFU CASKIN2 (11723855_a_at) / Fold change /veh CASKIN2 (11723855_a_at) / RFU LOC730098 (11760151_x_at) / Fold change /veh LOC730098 (11760151_x_at) / RFU OR4N2 (11742367_at) / Fold change /veh OR4N2 (11742367_at) / RFU PRRT2 (11749266_a_at) / Fold change /veh PRRT2 (11749266_a_at) / RFU SNX32 (11753110_a_at) / Fold change /veh SNX32 (11753110_a_at) / RFU CDHR5 (11726645_a_at) / Fold change /veh CDHR5 (11726645_a_at) / RFU RCAN1 (11760418_a_at) / Fold change /veh RCAN1 (11760418_a_at) / RFU FAM167A (11723789_a_at) / Fold change /veh FAM167A (11723789_a_at) / RFU FAM26E (11764081_at) / Fold change /veh FAM26E (11764081_at) / RFU ISYNA1 (11749810_s_at) / Fold change /veh ISYNA1 (11749810_s_at) / RFU ACY1 (11761880_at) / Fold change /veh ACY1 (11761880_at) / RFU 11764098_at / Fold change /veh 11764098_at / RFU SAMD14 (11745864_x_at) / Fold change /veh SAMD14 (11745864_x_at) / RFU NPB (11741838_a_at) / Fold change /veh NPB (11741838_a_at) / RFU TMPRSS6 (11731388_a_at) / Fold change /veh TMPRSS6 (11731388_a_at) / RFU KRTAP10-2 (11738614_at) / Fold change /veh KRTAP10-2 (11738614_at) / RFU ARHGAP8 /// PRR5-ARHGAP8 (11727945_x_at) / Fold change /veh ARHGAP8 /// PRR5-ARHGAP8 (11727945_x_at) / RFU KRTAP5-7 /// NADSYN1 (11734609_at) / Fold change /veh KRTAP5-7 /// NADSYN1 (11734609_at) / RFU RASL12 (11751679_a_at) / Fold change /veh RASL12 (11751679_a_at) / RFU CDKN2B (11736163_a_at) / Fold change /veh CDKN2B (11736163_a_at) / RFU PRF1 (11729649_at) / Fold change /veh PRF1 (11729649_at) / RFU, ZNF638 /// ZNF638-IT1 / Fold change vs veh, ZNF638 /// ZNF638-IT1 / RFU, PANK3 / Fold change vs veh, PANK3 / RFU, SH3YL1 / Fold change vs veh, SH3YL1 / RFU, ZEB2 / Fold change vs veh, ZEB2 / RFU, NRIP1 / Fold change vs veh, NRIP1 / RFU, PTTG1IP / Fold change vs veh, PTTG1IP / RFU, CAPN2 / Fold change vs veh, CAPN2 / RFU, MED14 / Fold change vs veh, MED14 / RFU, SNORA58 / Fold change vs veh, SNORA58 / RFU, C1orf63 / Fold change vs veh, C1orf63 / RFU, LRRFIP1 / Fold change vs veh, LRRFIP1 / RFU, NDUFAF7 / Fold change vs veh, NDUFAF7 / RFU, SLC12A2 / Fold change vs veh, SLC12A2 / RFU, IBTK / Fold change vs veh, IBTK / RFU, ESF1 / Fold change vs veh, ESF1 / Fold change vs veh, TMEM50B / RFU, TAOK1 / Fold change vs veh, TAOK1 / RFU, ACBD3 / Fold change vs veh, ACBD3 / RFU, TMA16 / Fold change vs veh, TMA16 / RFU, RWDD3 / Fold change vs veh, RWDD3 / RFU, BCAT1 / Fold change vs veh, BCAT1 / RFU, EDEM3 / Fold change vs veh, EDEM3 / RFU, TMEM33 / Fold change vs veh, TMEM33 / RFU, WDR75 / Fold change vs veh, WDR75 / RFU, AHCTF1 / Fold change vs veh, AHCTF1 / RFU, TFRC / Fold change vs veh, TFRC / RFU, ZDHHC17 / Fold change vs veh, ZDHHC17 / RFU, NOM1 / Fold change vs veh, NOM1 / RFU, ARL8B / Fold change vs veh, ARL8B / RFU, ZBTB11 / Fold change vs veh, ZBTB11 / RFU, TAMM41 / Fold change vs veh, TAMM41 / RFU, KIAA1704 /// LOC100996395 / Fold change vs veh, KIAA1704 /// LOC100996395 / RFU, ING1 / Fold change vs veh, ING1 / RFU, TRMT61B / Fold change vs veh, TRMT61B / RFU, FUBP3 / Fold change vs veh, FUBP3 / RFU, TP53 / Fold change vs veh, TP53 / RFU, TNKS2 / Fold change vs veh, TNKS2 / RFU, ZFP14 / Fold change vs veh, ZFP14 / RFU, ACTR2 / Fold change vs veh, ACTR2 / RFU, PPP3R1 / Fold change vs veh, PPP3R1 / RFU, PIK3R1 / Fold change vs veh, PIK3R1 / RFU, HNRNPA1 / Fold change vs veh, HNRNPA1 / RFU, RNF170 / Fold change vs veh, RNF170 / RFU, ZNF28 / Fold change vs veh, ZNF28 / RFU, RNGTT / Fold change vs veh, RNGTT / RFU, OGT / Fold change vs veh, OGT / RFU, BRD1 / Fold change vs veh, BRD1 / RFU, MARS / Fold change vs veh, MARS / RFU, ZNF655 / Fold change vs veh, ZNF655 / RFU, FAHD1 / Fold change vs veh, FAHD1 / RFU, BDP1 / Fold change vs veh, BDP1 / RFU, LRRCC1 / Fold change vs veh, LRRCC1 / RFU, ARID1A / Fold change vs veh, ARID1A / RFU, ZNF146 / Fold change vs veh, ZNF146 / RFU, ZNF330 / Fold change vs veh, ZNF330 / RFU, GPN3 / Fold change vs veh, GPN3 / RFU, C9orf123 / Fold change vs veh, C9orf123 / RFU, N4BP2L2 / Fold change vs veh, N4BP2L2 / RFU, ARFIP1 / Fold change vs veh, ARFIP1 / RFU, FAM179B / Fold change vs veh, FAM179B / RFU, BCL10 / Fold change vs veh, BCL10 / RFU, UHRF1BP1L / Fold change vs veh, UHRF1BP1L / RFU, BET1 / Fold change vs veh, BET1 / RFU, CNOT2 / Fold change vs veh, CNOT2 / RFU, ZNF268 / Fold change vs veh, ZNF268 / Fold change vs veh, ZNF507 / RFU, DGCR2 / Fold change vs veh, DGCR2 / RFU, WDSUB1 / Fold change vs veh, WDSUB1 / Fold change vs veh, HSP90B1 /// MIR3652 / RFU, ADSS / Fold change vs veh, ADSS / RFU, GK / Fold change vs veh, GK / RFU, ZNF148 / Fold change vs veh, ZNF148 / RFU, TAF9 / Fold change vs veh, TAF9 / RFU, SLC1A5 / Fold change vs veh, SLC1A5 / RFU, SLMO2 / Fold change vs veh, SLMO2 / RFU, ABCC4 / Fold change vs veh, ABCC4 / RFU, LOC101060439 /// RAP1B / Fold change vs veh, LOC101060439 /// RAP1B / RFU, RFX7 / Fold change vs veh, RFX7 / RFU, GTPBP10 / Fold change vs veh, GTPBP10 / RFU, CNEP1R1 / Fold change vs veh, CNEP1R1 / RFU, BIVM-ERCC5 /// ERCC5 / Fold change vs veh, BIVM-ERCC5 /// ERCC5 / RFU, ILF3 / Fold change vs veh, ILF3 / RFU 11762660_at / Fold change /veh 11762660_at / RFU VCAN (11757783_s_at) / Fold change /veh VCAN (11757783_s_at) / RFU DDX43 (11728927_at) / Fold change /veh DDX43 (11728927_at) / RFU KRT8 (11758188_x_at) / Fold change /veh KRT8 (11758188_x_at) / RFU NKD1 (11759106_at) / Fold change /veh NKD1 (11759106_at) / RFU SRD5A1 (11742802_a_at) / Fold change /veh SRD5A1 (11742802_a_at) / RFU TPSAB1 /// TPSB2 (11721975_s_at) / Fold change /veh TPSAB1 /// TPSB2 (11721975_s_at) / RFU GSTM3 (11746129_a_at) / Fold change /veh GSTM3 (11746129_a_at) / RFU IL23R (11737362_x_at) / Fold change /veh IL23R (11737362_x_at) / RFU TMEM51 (11727254_a_at) / Fold change /veh TMEM51 (11727254_a_at) / RFU PIWIL2 (11732686_x_at) / Fold change /veh PIWIL2 (11732686_x_at) / RFU ORM1 (11744905_x_at) / Fold change /veh ORM1 (11744905_x_at) / RFU CCDC152 (11743942_at) / Fold change /veh CCDC152 (11743942_at) / RFU ECM1 (11717891_a_at) / Fold change /veh ECM1 (11717891_a_at) / RFU IL23R (11748794_a_at) / Fold change /veh IL23R (11748794_a_at) / RFU TNFAIP8L3 (11732012_x_at) / Fold change /veh TNFAIP8L3 (11732012_x_at) / RFU MBOAT4 (11741988_at) / Fold change /veh MBOAT4 (11741988_at) / RFU 11764193_at / Fold change /veh 11764193_at / RFU TMEM53 (11763286_at) / Fold change /veh TMEM53 (11763286_at) / RFU MAGEB2 (11727129_at) / Fold change /veh MAGEB2 (11727129_at) / RFU TMEM200A (11744735_a_at) / Fold change /veh TMEM200A (11744735_a_at) / RFU CCDC152 (11751479_a_at) / Fold change /veh CCDC152 (11751479_a_at) / RFU FAM211A (11726209_a_at) / Fold change /veh FAM211A (11726209_a_at) / RFU RGS16 (11746705_a_at) / Fold change /veh RGS16 (11746705_a_at) / RFU VCAN (11755009_s_at) / Fold change /veh VCAN (11755009_s_at) / RFU RHOB (11743442_s_at) / Fold change /veh RHOB (11743442_s_at) / RFU RGS16 (11720943_a_at) / Fold change /veh RGS16 (11720943_a_at) / RFU RGS16 (11720944_at) / Fold change /veh RGS16 (11720944_at) / RFU, VPS4B / Fold change vs veh, VPS4B / RFU, CREB1 / Fold change vs veh, CREB1 / RFU, DNAJC13 / Fold change vs veh, DNAJC13 / RFU, GNAQ / Fold change vs veh, GNAQ / RFU, CDK5R1 / Fold change vs veh, CDK5R1 / RFU, ZRANB3 / Fold change vs veh, ZRANB3 / RFU, CUL4A / Fold change vs veh, CUL4A / RFU, CCNY / Fold change vs veh, CCNY / RFU, UFL1 / Fold change vs veh, UFL1 / RFU, COG3 / Fold change vs veh, COG3 / RFU, DIAPH2 / Fold change vs veh, DIAPH2 / RFU, SKA2 / Fold change vs veh, SKA2 / RFU, AFF3 / Fold change vs veh, AFF3 / RFU, LMF1 / Fold change vs veh, LMF1 / RFU, IPO11 / Fold change vs veh, IPO11 / RFU, DFFB / Fold change vs veh, DFFB / RFU, FOXP1 / Fold change vs veh, FOXP1 / RFU, CARD8 / Fold change vs veh, CARD8 / RFU, STRN3 / Fold change vs veh, STRN3 / RFU, ADK / Fold change vs veh, ADK / RFU, RASSF2 / Fold change vs veh, RASSF2 / RFU, WIPF1 / Fold change vs veh, WIPF1 / RFU, LARP1B / Fold change vs veh, LARP1B / RFU, RASA1 / Fold change vs veh, RASA1 / RFU, RB1 / Fold change vs veh, RB1 / RFU, PPFIA1 / Fold change vs veh, PPFIA1 / RFU, MAT2A / Fold change vs veh, MAT2A / RFU, CCT5 / Fold change vs veh, CCT5 / RFU, WDR92 / Fold change vs veh, WDR92 / RFU, CUX1 / Fold change vs veh, CUX1 / RFU, TTC7A / Fold change vs veh, TTC7A / RFU, TMEM135 / Fold change vs veh, TMEM135 / RFU, DEPTOR / Fold change vs veh, DEPTOR / RFU, CPM / Fold change vs veh, CPM / RFU, DNAJB6 / Fold change vs veh, DNAJB6 / RFU, CACNA2D3 / Fold change vs veh, CACNA2D3 / RFU, DTX4 / Fold change vs veh, DTX4 / RFU, TFCP2 / Fold change vs veh, TFCP2 / RFU, GMCL1 /// GMCL1P1 / Fold change vs veh, GMCL1 /// GMCL1P1 / RFU, AEBP2 / Fold change vs veh, AEBP2 / RFU, SNHG1 /// SNORD22 /// SNORD25 /// SNORD26 /// SNORD27 /// SNORD28 /// SNORD29 /// SNORD31 / Fold change vs veh, SNHG1 /// SNORD22 /// SNORD25 /// SNORD26 /// SNORD27 /// SNORD28 /// SNORD29 /// SNORD31 / Fold change (Aza/veh), C12orf56 (ProbeSet 11735607_a_at) / Fold change (ACY-1035/veh), C12orf56 (ProbeSet 11735607_a_at) / Fold change (Aza/veh), FGFR1OP (ProbeSet 11751329_s_at) / Fold change (ACY-1035/veh), FGFR1OP (ProbeSet 11751329_s_at) / Fold change (Aza/veh), VPS36 (ProbeSet 11739960_a_at) / Fold change (ACY-1035/veh), VPS36 (ProbeSet 11739960_a_at) / RFU SYPL1 (11715823_x_at) / Fold change /veh SYPL1 (11715823_x_at) / RFU IGFBP7 (11715501_s_at) / Fold change /veh IGFBP7 (11715501_s_at) / RFU REEP3 (11722064_at) / Fold change /veh REEP3 (11722064_at) / RFU IGLL1 (11728026_x_at) / Fold change /veh IGLL1 (11728026_x_at): dose or concentration left out as unconfirmed
Settings: ProbeSet 11758440_s_at; LIST B

For Nc1ncn([C@@H]2O[C@H](CO)[C@@H](O)[C@H]2O)c(=O)n1 [azacitidine], the “Fold change vs veh, RFX7” value was 0.86.
